Experimental data from patent publication US7674456B2, “Breast cancer cell lines and uses thereof” (priority 2004, dated 2010).

Tested on: tumor cells from right chest wall lesion (mammary carcinoma cells)
Experiment: Ex vivo drug response testing of fresh tumor specimen (DISC, MTT and redox assays)
Format: cell-based, human
Set-up: key to ASSAY RESULT: Sensitive: the drug inhibits the cell growth or proliferation of the cell to a greater degree than is expected for an appropriate control; Resistant: the drug inhibits the cell growth or proliferation of the cell to a lesser degree than is expected for an appropriate control
Conditions: for ASSAY RESULT: fresh tumor cells, compared with a database of assays of similar technical characteristics; for activity in vitro (in words): summary of the table
Description: An unfixed portion of the tumor was further analyzed for response to several drugs. A specimen consisted of 1 piece of yellow, white, and red tissue, obtained from the right chest wall lesion. The piece was soft and sticky in texture, measured 0.8×1.4 cm, and weighed 0.47 gm. The specimen was minced to individual pieces smaller than one mm with surgical scissors and digested for 1.3 hours with collagenase-DNAse. Viable tumor cells were enriched by Ficoll-diatriozate centrifugation. Cytospin slides were prepared, air-dried, and stained with Fast Green/Hamatoxyline-eosin. On this cytology preparation obtained from mechanically-dissociated, enzyme-digested tissue, there was a collection of somewhat pleomorphic tumor cells, consistent with mammary carcinoma cells. Tumor cells were present as loose cell clusters (60% of total tumor cells) and, less commonly, as discohesive single cells (40% of total tumor cells). The tumor cells measured 22-25 microns in diameter and had N/N+C ratios of 0.6-0.8. […] Nucleoli were variably prominent. There were no cells with large clear globular areas or secretory material within the cytoplasm. There was slight cytoplasmic and nuclear molding. Approximately 40% of the enriched tumor cell fraction consisted of normal-appearing connective tissue cells and inflammatory cells.
Cells were plated for testing in 3 different assay endpoints. In the DISC assay, the entire contents of the cell culture were cytocentrifuged onto permanent microscope slides and differentially stained to allow discrimination of normal and neoplastic cells and living and dead cells. […] The MTT assay measures mitochondrial metabolism in the entire cell culture. The redox assay measures total metabolic activity in the entire cell culture, using the Alamar Blue reagent to index the oxygen reduction potential of the culture medium. Because of the very low yield of viable tumor cells, only a small drug panel could be tested. Additionally, some drugs could be tested only in a single assay system.
At the conclusion of the culture period, there was 10% spontaneous attrition in viable tumor cell numbers. Formazan signal in the MTT assay was moderate, reflective of moderate cell metabolism, and allowing for an MTT assay of good quality. Percentage of tumor cells as a percentage of total viable cells at the conclusion of the culture was approximately 85. DISC and MTT assays were in reasonably good agreement. The overall technical quality of the assays was good, marred only by the low yield of tumor cells, which severely limited the scope of testing.
Results were compared with a database of assays which had similar technical characteristics, as the technical characteristics of these assays influence the in vitro results, along with the intrinsic drug resistance of the tumor cells. By controlling for technical characteristics such as spontaneous cell loss, metabolic signal at the conclusion of the culture, and tumor cell clustering, biological correlations are improved.

Row | Compound | ASSAY RESULT | activity in vitro (in words) | activity in vitro (in words) (listed as paclitaxel (Taxol))
1 | N.N.O=C([O-])C1(C(=O)[O-])CCC1.[Pt+2] [Carboplatin] | Resistant | poor activity | 
2 | O=P1(N(CCCl)CCCl)NC(OO)CCO1 (centres unmarked) [Cyclophosphamide (4HC)] | Sensitive | above-average activity | 
3 | COc1cccc2c1C(=O)c1c(O)c3c(c(O)c1C2=O)C[C@@](O)(C(=O)CO)C[C@@H]3O[C@H]1C[C@H](N)[C@H](O)[C@H](C)O1 [Doxorubicin] | Intermediate |  | 
4 | COc1cc([C@@H]2c3cc4c(cc3[C@@H](O[C@@H]3O[C@@H]5CO[C@@H](C)O[C@H]5[C@H](O)[C@H]3O)[C@H]3COC(=O)[C@H]23)OCO4)cc(OC)c1O [Etoposide] | Sensitive | above-average activity | 
5 | O=c1[nH]cc(F)c(=O)[nH]1 [Fluorouracil] | Intermediate |  | 
6 | O=C1c2c(O)ccc(O)c2C(=O)c2c(NCCNCCO)ccc(NCCNCCO)c21 [Mitoxantrone] | Intermediate |  | 
7 | CC(=O)O[C@H]1C(=O)[C@@]2(C)[C@H]([C@H](OC(=O)c3ccccc3)[C@]3(O)C[C@H](OC(=O)[C@H](O)[C@@H](NC(=O)c4ccccc4)c4ccccc4)C(C)=C1C3(C)C)[C@]1(OC(C)=O)CO[C@@H]1C[C@@H]2O [Taxol (Paclitaxel), Paclitaxel] | Sensitive | best drug in vitro | above-average activity
8 | CCC1=C[C@@H]2CN(C1)Cc1c([nH]c3ccccc13)[C@@](C(=O)OC)(c1cc3c(cc1OC)N(C)[C@H]1[C@@](O)(C(=O)OC)[C@H](OC(C)=O)[C@]4(CC)C=CCN5CC[C@]31[C@@H]54)C2 [Vinorelbine (Navelbine), Vinorelbine] | Intermediate |  | 
9 | Gemcitabine + Cisplatin | Intermediate |  | 
